The numbers were not newly measured in patent US7803755B2, “Molecules for the treatment and prevention of fungal diseases” (priority 2006, dated 2010), which cites them from elsewhere.

Counter-ions that a name gives are not always drawn.

The test system of one data set is onychomycosis. To be noted: after using ciclopirox lacquer.
The subject of data set [1] is Trichophyton rubrum, Trichophyton mentagrophytes, Trichophyton tonsurans, Epidermophyton floccosum, Microsporum canis, Microsporum audouini, and Microsporum …. To be noted: wide spectrum of organisms.
For data set [2], the system named is Candida species, including Candida albicans.

On to `Cc1cc(C2CCCCC2)n(O)c(=O)c1` [Ciclopirox], for which, in the data set with onychomycosis, the “patients rating their onychomycosis as improved” value is recorded as 90%.

Regarding `CN(C/C=C/c1ccccc1)Cc1cccc2ccccc12` [Naftifine hydrochloride, naftifine hydrochloride], the “antifungal activity in vitro” value in data set [1] is “fungicidal activity”; in data set [2] it was “fungistatic activity”.
